Our source for the inhibition values is US10435399B2, “HDAC6 inhibitory heterocyclic compound” (TAKEDA PHARMACEUTICAL COMPANY LIMITED, priority 2017, dated 2019).

In the assay the target is T1, HDAC6 enzyme (Homo sapiens, UniProt Q9UBN7).
T1 construct: transducing full length HDAC6 gene into Sf-9 insect cells; GST; purchased SignalChem; host or cells: Sf-9 insect cells
T1 sequence (Q9UBN7 1-1215): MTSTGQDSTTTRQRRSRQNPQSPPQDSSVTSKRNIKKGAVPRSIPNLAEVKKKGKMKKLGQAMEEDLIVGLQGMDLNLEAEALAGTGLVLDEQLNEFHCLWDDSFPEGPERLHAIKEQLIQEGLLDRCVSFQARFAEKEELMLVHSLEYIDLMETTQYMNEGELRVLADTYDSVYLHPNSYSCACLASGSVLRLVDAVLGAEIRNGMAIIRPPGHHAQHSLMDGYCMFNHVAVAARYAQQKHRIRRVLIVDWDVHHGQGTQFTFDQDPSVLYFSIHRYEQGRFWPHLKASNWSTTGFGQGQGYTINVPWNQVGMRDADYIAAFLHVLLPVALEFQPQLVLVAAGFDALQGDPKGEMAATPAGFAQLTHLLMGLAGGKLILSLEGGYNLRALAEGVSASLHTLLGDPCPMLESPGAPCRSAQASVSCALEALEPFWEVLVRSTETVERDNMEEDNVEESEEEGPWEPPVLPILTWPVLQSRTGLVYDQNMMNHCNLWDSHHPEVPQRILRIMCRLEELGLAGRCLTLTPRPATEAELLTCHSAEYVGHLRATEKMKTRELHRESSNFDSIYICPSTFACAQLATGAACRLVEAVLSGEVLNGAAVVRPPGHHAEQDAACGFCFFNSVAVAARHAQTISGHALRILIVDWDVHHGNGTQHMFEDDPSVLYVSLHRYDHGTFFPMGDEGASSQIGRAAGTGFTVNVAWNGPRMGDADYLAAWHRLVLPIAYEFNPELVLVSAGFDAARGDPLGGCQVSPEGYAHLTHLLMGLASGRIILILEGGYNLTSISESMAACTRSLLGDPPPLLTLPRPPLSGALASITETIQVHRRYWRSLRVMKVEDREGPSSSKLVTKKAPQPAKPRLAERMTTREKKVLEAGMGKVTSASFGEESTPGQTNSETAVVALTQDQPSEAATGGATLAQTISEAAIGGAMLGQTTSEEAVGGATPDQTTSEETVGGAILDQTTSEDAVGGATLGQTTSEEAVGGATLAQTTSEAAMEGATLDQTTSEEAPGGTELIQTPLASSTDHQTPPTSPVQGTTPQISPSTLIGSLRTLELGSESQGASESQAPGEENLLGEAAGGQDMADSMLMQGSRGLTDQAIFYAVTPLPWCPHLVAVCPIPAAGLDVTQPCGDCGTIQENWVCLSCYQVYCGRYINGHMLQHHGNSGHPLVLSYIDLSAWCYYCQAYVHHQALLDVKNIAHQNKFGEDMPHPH
Kind of assay: HDAC6 enzyme inhibitory activity (HDAC-Glo I/II Assay kit). In kind it is biochemical. The settings on record: 10 μM; wells without enzyme = 100% inhibition; read-out: HDAC6 inhibitory rate (%) (10 μM). An outline of the steps: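 Inhibition is calculated as relative activity, taking luminescence in enzyme-free wells as complete inhibition. The enzyme, full-length and GST-purified after Sf-9 expression, was exposed to compound for 60 min at room temperature before a 20 min HDAC-Glo reaction.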

`O=C(N[C@@H]1CCCC[C@H]1N1Cc2ncc(-c3nnc(C(F)F)o3)cc2C1=O)OC1CC1` [Example 150, cyclopropyl ((1R,2R)-2-(3-(5-(difluoromethyl)-1,3,4-oxadiazol-2-yl)-5-oxo-5,7-dihydro-6H-pyrrolo[3,4-b]pyridin-6-yl)cyclohexyl)carbamate]: the inhibition at 10 µM was found to be 97%.

As to `O=C1c2cc(-c3nnc(C(F)F)o3)ccc2CN1Cc1ccc(F)cc1` [Example 151, 6-(5-(difluoromethyl)-1,3,4-oxadiazol-2-yl)-2-(4-fluorobenzyl)isoindolin-1-one], the inhibition at 10 µM worked out at 98%.

Consider `CC(=O)N[C@@H]1CCCC[C@H]1N1Cc2c(F)cc(-c3nnc(C(F)F)o3)cc2C1=O` [Example 152, N-((1R,2R)-2-(6-(5-(difluoromethyl)-1,3,4-oxadiazol-2-yl)-4-fluoro-1-oxo-1,3-dihydro-2H-isoindol-2-yl)cyclohexyl)acetamide], for which the inhibition at 10 µM came out at 99%.

With `COC(=O)N[C@@H]1CCCC[C@H]1N1Cc2c(F)cc(-c3nnc(C(F)F)o3)cc2C1=O` [Example 153, methyl ((1R,2R)-2-(6-(5-(difluoromethyl)-1,3,4-oxadiazol-2-yl)-4-fluoro-1-oxo-1,3-dihydro-2H-isoindol-2-yl)cyclohexyl)carbamate], the inhibition at 10 µM is 100%.

As to `CNC(=O)O[C@@H]1CCCC[C@H]1N1Cc2ccc(-c3nnc(C(F)F)o3)cc2C1=O` [Example 154, (1R,2R)-2-(6-(5-(difluoromethyl)-1,3,4-oxadiazol-2-yl)-1-oxo-1,3-dihydro-2H-isoindol-2-yl)cyclohexyl methylcarbamate], the inhibition at 10 µM came out at 98%.

In the case of `O=C1c2cc(-c3nnc(C(F)F)o3)cc(F)c2CN1Cc1ccccn1` [Example 155, 6-(5-(difluoromethyl)-1,3,4-oxadiazol-2-yl)-4-fluoro-2-(pyridin-2-ylmethyl)isoindolin-1-one], the inhibition at 10 µM came to 95%.

Regarding `COc1ccccc1-c1ccccc1N1Cc2ccc(-c3nnc(C(F)F)o3)cc2C1=O` [Example 156, 6-(5-(difluoromethyl)-1,3,4-oxadiazol-2-yl)-2-(2′-methoxybiphenyl-2-yl)isoindolin-1-one], the inhibition at 10 µM came out at 100%.

`CN1CCN([C@@H]2CCCC[C@H]2N2Cc3ccc(-c4nnc(C(F)F)o4)cc3C2=O)C1=O` [Example 157, 6-(5-(difluoromethyl)-1,3,4-oxadiazol-2-yl)-2-((1R,2R)-2-(3-methyl-2-oxoimidazolidin-1-yl)cyclohexyl)isoindolin-1-one]: the inhibition at 10 µM turned out to be 98%.

Consider `Cc1cc(-c2ccccc2N2Cc3ccc(-c4nnc(C(F)F)o4)cc3C2=O)n(C)n1` [Example 158, 6-(5-(difluoromethyl)-1,3,4-oxadiazol-2-yl)-2-(2-(1,3-dimethyl-1H-pyrazol-5-yl)phenyl)isoindolin-1-one], for which the inhibition at 10 µM amounted to 100%.

`Cc1nn(C)cc1-c1ccccc1N1Cc2ccc(-c3nnc(C(F)F)o3)cc2C1=O` [Example 159, 6-(5-(difluoromethyl)-1,3,4-oxadiazol-2-yl)-2-(2-(1,3-dimethyl-1H-pyrazol-4-yl)phenyl)isoindolin-1-one]: the inhibition at 10 µM was determined as 100%.

With `Cn1nccc1-c1ccccc1N1Cc2ccc(-c3nnc(C(F)F)o3)cc2C1=O` [Example 160, 6-(5-(difluoromethyl)-1,3,4-oxadiazol-2-yl)-2-(2-(1-methyl-1H-pyrazol-5-yl)phenyl)isoindolin-1-one], the inhibition at 10 µM is 101%.

Regarding `COC(=O)N[C@@H]1CCCC[C@H]1N1Cc2ncc(-c3nnc(C(F)F)o3)cc2C1=O` [Example 161, methyl ((1R,2R)-2-(3-(5-(difluoromethyl)-1,3,4-oxadiazol-2-yl)-5-oxo-5,7-dihydro-6H-pyrrolo[3,4-b]pyridin-6-yl)cyclohexyl)carbamate], the inhibition at 10 µM was 99%.

For the molecule `CC(F)(F)C(=O)N[C@@H]1CCCC[C@H]1N1Cc2ncc(-c3nnc(C(F)F)o3)cc2C1=O` [Example 162, N-((1R,2R)-2-(3-(5-(difluoromethyl)-1,3,4-oxadiazol-2-yl)-5-oxo-5,7-dihydro-6H-pyrrolo[3,4-b]pyridin-6-yl)cyclohexyl)-2,2-difluoropropanamide], the inhibition at 10 µM amounted to 97%.

Regarding `O=C(N[C@@H]1CCCC[C@H]1N1Cc2ncc(-c3nnc(C(F)F)o3)cc2C1=O)c1cccc(Cl)c1` [Example 163, 3-chloro-N-((1R,2R)-2-(3-(5-(difluoromethyl)-1,3,4-oxadiazol-2-yl)-5-oxo-5,7-dihydro-6H-pyrrolo[3,4-b]pyridin-6-yl)cyclohexyl)benzamide], the inhibition at 10 µM was 98%.

For the molecule `O=C(N[C@@H]1CCCC[C@H]1N1Cc2ncc(-c3nnc(C(F)F)o3)cc2C1=O)c1ccccn1` [Example 164, N-((1R,2R)-2-(3-(5-(difluoromethyl)-1,3,4-oxadiazol-2-yl)-5-oxo-5,7-dihydro-6H-pyrrolo[3,4-b]pyridin-6-yl)cyclohexyl)pyridine-2-carboxamide], the inhibition at 10 µM came to 99%.

With `O=C(N[C@@H]1CCCC[C@H]1N1Cc2c(F)cc(-c3nnc(C(F)F)o3)cc2C1=O)C(F)F` [Example 165, N-((1R,2R)-2-(6-(5-(difluoromethyl)-1,3,4-oxadiazol-2-yl)-4-fluoro-1-oxo-1,3-dihydro-2H-isoindol-2-yl)cyclohexyl)-2,2-difluoroacetamide], the inhibition at 10 µM came to 99%.

For `CCC(=O)N[C@@H]1CCCC[C@H]1N1C(=O)c2ccc(-c3nnc(C(F)F)o3)cc2C1=O` [Example 166, N-((1R,2R)-2-(5-(5-(difluoromethyl)-1,3,4-oxadiazol-2-yl)-1,3-dioxo-1,3-dihydro-2H-isoindol-2-yl)cyclohexyl)propanamide], the inhibition at 10 µM stood at 97%.

`CC(C)(C)OC(=O)N[C@@H]1COCC[C@H]1N1Cc2c(F)cc(-c3nnc(C(F)F)o3)cc2C1=O` [Example 167, tert-butyl ((3S,4R)-4-(6-(5-(difluoromethyl)-1,3,4-oxadiazol-2-yl)-4-fluoro-1-oxo-1,3-dihydro-2H-isoindol-2-yl)tetrahydro-2H-pyran-3-yl)carbamate]: the inhibition at 10 µM turned out to be 100%.

As to `CC(C)(C)OC(=O)N1CCOC[C@@H]1CN1Cc2c(F)cc(-c3nnc(C(F)F)o3)cc2C1=O` [Example 168, tert-butyl (3S)-3-((6-(5-(difluoromethyl)-1,3,4-oxadiazol-2-yl)-4-fluoro-1-oxo-1,3-dihydro-2H-isoindol-2-yl)methyl)morpholine-4-carboxylate], the inhibition at 10 µM was 100%.

With `N#Cc1cccc(-c2ccccc2N2Cc3ccc(-c4nnc(C(F)F)o4)cc3C2=O)c1` [Example 169, 2′-(6-(5-(difluoromethyl)-1,3,4-oxadiazol-2-yl)-1-oxo-1,3-dihydro-2H-isoindol-2-yl)biphenyl-3-carbonitrile], the inhibition at 10 µM worked out at 101%.

As for `COc1cccc(-c2ccccc2N2Cc3ccc(-c4nnc(C(F)F)o4)cc3C2=O)c1` [Example 170, 6-(5-(difluoromethyl)-1,3,4-oxadiazol-2-yl)-2-(3′-methoxybiphenyl-2-yl)isoindolin-1-one], the inhibition at 10 µM worked out at 102%.

Consider `O=C1c2cc(-c3nnc(C(F)F)o3)ccc2CN1c1ccccc1-c1cccc(C(F)(F)F)c1` [Example 171, 6-(5-(difluoromethyl)-1,3,4-oxadiazol-2-yl)-2-(3′-(trifluoromethyl)biphenyl-2-yl)isoindolin-1-one], for which the inhibition at 10 µM came to 101%.
